Results on ten compounds are retold here after PubChem BioAssay (NCI).

Holding throughout (experiment): inhibition of tumour cell growth, NCI panel, 48 h
Assay [1] relates to SK-MEL-5 melanoma.
Assay [2] concerns UACC-62 melanoma.
Assay [3] deals with LOX IMVI melanoma.
Assay [4] relates to SK-MEL-28 melanoma.
The test system of assay [5] is A549 NSCLC.
Assay [6] deals with SK-OV-3 ovarian.
Assay [7] deals with SNB-75 CNS.
Assay [8] deals with HCT-116 colon.
Assay [9] concerns SN12C renal.
In assay [10] the test system is TK-10 renal.

Molecules are shown by their SMILES.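 Interpolation was linear, between the two tested concentrations surrounding the appropriate level; five concentrations were tested over 48 hours in 96-well plates. GI50 marks 50% less growth. At the TGI there is no net growth.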 Some results are limits rather than exact numbers.

Turning to `C[C@@H]1C=C2C(=O)O[C@@H]3CC[C@H](C1)[C@]23O`, the GI50 in [1] is 10.9 µM; in assay [2], 4.78 µM; in assay [3], 3.33 µM; in assay [4], 6.17 µM; in [5] it was 12.7 µM; in assay [6], 15.5 µM. Moreover, the GI50 was 3.33 µM in assay [7], 3.13 µM in [8] and 5.65 µM in assay [9]. For the same compound, the TGI in assay [1] amounted to 24 µM; in assay [2], 19.6 µM; in [3] it was 13.3 µM; in assay [4], 25.8 µM; in assay [5], 47 µM; in assay [6], 64.3 µM. In addition, the TGI in assay [7] came out at 20.2 µM; in assay [8], 13.8 µM; in assay [9], 31.2 µM.
Turning to `O=C(NO)C12C3C4C1C1C2C3C41C(=O)NO` (stereo not given), the TGI in assay [1], in assay [2], in assay [3], in assay [4], in assay [5] and in [6] was above 100 µM each time. For the same compound, the TGI in assay [7], in [8], in assay [10] and in assay [9] was above 100 µM each time.
As to `C[C@H]1[C@H](C)CC[C@]2(C(=O)O)CC[C@]3(C)C(=CC[C@@H]4[C@@]5(C)C/C(=C/c6ccco6)C(=O)C(C)(C)[C@@H]5CC[C@]43C)[C@H]12`, the GI50 was 4.44 µM in assay [1]; 2.86 µM in assay [2]; 4.51 µM in [3]; 4.81 µM in [4]; 3.71 µM in assay [5]; 5.83 µM in assay [6]. Also, the GI50 in assay [7] is 18.6 µM; in assay [8] it was 3.1 µM; in assay [10], 7.9 µM; in assay [9], 3.7 µM. For the same compound, the TGI came out at 15.6 µM in [1]; 13 µM in assay [2]; 17 µM in [3]; 17.5 µM in [4]; 16.8 µM in [5]; 33.9 µM in assay [6]. The TGI in assay [7] came out at 71.8 µM; in assay [8] it was 11.7 µM; in assay [10], 26.3 µM; in assay [9], 18.9 µM.
Consider `C1=Cc2nc1c(-c1ccncc1)c1ccc([n-]1)c(-c1ccncc1)c1nc(c(-c3ccncc3)c3ccc([n-]3)c2-c2ccncc2)C=C1.[Zn+2]`, for which the TGI in assay [1], in assay [2], in assay [3], in assay [4], in assay [5] and in assay [6] was above 100 µM in each case. Further, the TGI in [7], in [8], in assay [10] and in [9] was above 100 µM throughout.
Regarding `NCCC(O)(P(=O)(O)O)P(=O)(O)O`, the GI50 was above 100 µM in assay [1]; 29.1 µM in assay [2]; above 100 µM in assay [3]; above 100 µM in assay [4]; above 100 µM in [5]; above 100 µM in assay [6]. In addition, the GI50 in assay [7], in [8], in [10] and in [9] was above 100 µM each time. The TGI in assay [1], in [2], in assay [3], in [4], in assay [5] and in assay [6] was above 100 µM throughout. Besides, the TGI in assay [7], in assay [8], in assay [10] and in [9] was above 100 µM each time.
With `COC(=O)C(Cl)=C1CC1`, the TGI in assay [1] was 84.9 µM; in [2], above 100 µM; in assay [3], 59.6 µM; in [4], 54.3 µM; in assay [5], above 100 µM; in assay [6], above 100 µM. Further, the TGI in [7], in assay [10] and in [9] was above 100 µM each time.
Turning to `COc1ccccc1CNCCCN1C(=O)c2ccc3c4c(ccc(c24)C1=O)C(=O)N(CCCNCCCN)C3=O`, the GI50 in assay [1] was 0.482 µM; in [2], 0.653 µM; in assay [3], 0.232 µM; in [4] it was 0.74 µM; in [5] it was 0.13 µM; in assay [6] it was 1.01 µM. Besides, the GI50 was 1.29 µM in assay [7], 0.136 µM in [8] and 1.57 µM in assay [10]. Moreover, the TGI in assay [1] turned out to be 1.82 µM; in assay [2] it was 2.17 µM; in [3], 1.92 µM; in assay [4], 2.7 µM; in assay [5], 2.13 µM; in [6], 4.66 µM. Also, the TGI amounted to 3.29 µM in assay [7], 3.04 µM in assay [8] and 6.36 µM in assay [10].
For the compound `O=C(COc1ccccc1)NS(=O)(=O)c1ccccc1`, the TGI in [2], in assay [3], in assay [4], in assay [5], in assay [6] and in assay [7] was above 100 µM in each case. In addition, the TGI in assay [8], in assay [10] and in assay [9] was above 100 µM in each case.
`COc1ccc2c(c1)OC[C@@H]1c3cc4c(cc3O[C@H]21)OCO4`: the TGI was above 100 µM in [1]; above 100 µM in assay [3]; above 100 µM in assay [4]; above 100 µM in assay [5]; above 100 µM in assay [6]; 69.2 µM in assay [7]. Moreover, the TGI in assay [8] and in [10] was above 100 µM each time.
On to `N#Cc1ccnc(N2C(=O)CC[C@H]2C(=O)N(c2cncc(F)c2)[C@H](C(=O)NC2CC(F)(F)C2)c2ccccc2Cl)c1`, for which the GI50 in [1] is above 100 µM; in [2], 41.2 µM; in assay [3], 52.6 µM; in assay [4], above 100 µM; in assay [5], 65.8 µM; in assay [6], above 100 µM. In addition, the GI50 in assay [7] was 16.7 µM; in assay [8] it was 29.9 µM; in [9], 60.8 µM. Moreover, the TGI in assay [1], in [2], in assay [3], in [4], in assay [5] and in assay [6] was above 100 µM each time. Besides, the TGI in assay [7], in assay [8] and in [9] was above 100 µM throughout.
